In US10376520B2, “Methods for the treatment of cardiovascular disorders” (Galapagos NV, priority 2015, dated 2019):

System: RA patients
Test: Atherogenic index, Study 1 (RA patients, add-on to MTX)
Assay type: in vivo, human
Procedure: As used herein, the term ‘atherogenic index’ refers to
Double-blind, placebo-controlled add on study in subjects with moderately to severely active RA who have an inadequate response to methotrexate (MTX) (oral or parenteral).
Compound 1 (dosed as a [Compound 1:HCl:3H2O]) is dosed for twelve weeks once daily (q.d.) (50 mg, 100 mg or 200 mg) or twice daily (b.i.d.) (25 mg, 50 mg or 100 mg); or placebo.
At Week 12, the subjects on placebo who have not achieved 20% improvement in swollen joint count (SJC66) and tender joint count (TJC68) are re-randomized automatically to receive Compound 1 (dosed as a [Compound 1:HCl:3H2O]) either at 100 mg q.d. or 50 mg b.i.d. doses in a blinded fashion; subjects on 50 mg q.d. who have not achieved 20% improvement in SJC66 and TJC68 will be assigned to 100 mg q.d. and subjects on 25 mg b.i.d. that have not achieved a 20% improvement in SJC66 and TJC68 will be assigned to 50 mg b.i.d. Subjects who switch treatment at week 12 are handled as if they discontinued at week 12 for the purpose of statistical analysis, whereas subjects in the other groups will maintain their randomized treatment until Week 24.
The atherogenic index has been identified to be a good predictor of cardiovascular disorders risks and is calculated as follows: […]

[1] = 100 mg b.i.d. continued over 24 weeks, week 1
[2] = 100 mg b.i.d. continued over 24 weeks, week 2
[3] = 100 mg b.i.d. continued over 24 weeks, week 4
[4] = 100 mg b.i.d. continued over 24 weeks, week 8
[5] = 100 mg b.i.d. continued over 24 weeks, week 12
[6] = 100 mg b.i.d. continued over 24 weeks, week 16
[7] = 100 mg b.i.d. continued over 24 weeks, week 20
[8] = 100 mg b.i.d. continued over 24 weeks, week 24
[9] = 100 mg q.d. continued over 24 weeks, week 1
[10] = 100 mg q.d. continued over 24 weeks, week 2
[11] = 100 mg q.d. continued over 24 weeks, week 4
[12] = 100 mg q.d. continued over 24 weeks, week 8
[13] = 100 mg q.d. continued over 24 weeks, week 12
[14] = 100 mg q.d. continued over 24 weeks, week 16
[15] = 100 mg q.d. continued over 24 weeks, week 20
[16] = 100 mg q.d. continued over 24 weeks, week 24

## O=C(Nc1nc2cccc(-c3ccc(CN4CCS(=O)(=O)CC4)cc3)n2n1)C1CC1 [Compound 1, cyclopropanecarboxylic acid {5-[4-(1,1-dioxo-thiomorpholin-4-ylmethyl)-phenyl]-[1,2,4]triazolo[1,5-a]pyridin-2yl}-amide]
50 mg q.d., week 1
  Atherogenic index Median CFB - 12 weeks results: -0.10 mmol/L
50 mg q.d., week 2
  Atherogenic index Mean CFB: -0.13 mmol/L
  Atherogenic index Mean percentage CFB - 12 weeks results: −3%
  Atherogenic index Median CFB - 12 weeks results: -0.20 mmol/L
50 mg q.d., week 4
  Atherogenic index Mean CFB: -0.11 mmol/L
  Atherogenic index Mean percentage CFB - 12 weeks results: −3%
  Atherogenic index Median CFB - 12 weeks results: -0.10 mmol/L
50 mg q.d., week 8
  Atherogenic index Mean CFB: -0.03 mmol/L
  Atherogenic index Mean percentage CFB - 12 weeks results: 0%
  Atherogenic index Median CFB - 12 weeks results: -0.10 mmol/L
50 mg q.d., week 12
  Atherogenic index Mean CFB: 0.01 mmol/L
  Atherogenic index Mean percentage CFB - 12 weeks results: 2%
  Atherogenic index Median CFB - 12 weeks results: 0.00 mmol/L
[1]
  Atherogenic index Mean CFB - 24 weeks results: -0.05 mmol/L
  Atherogenic index Mean percentage CFB - 24 weeks results: −0.38%
  Atherogenic index Median CFB - 24 weeks results: 0.00 mmol/L
[2]
  Atherogenic index Mean CFB - 24 weeks results: -0.19 mmol/L
  Atherogenic index Mean percentage CFB - 24 weeks results: −4.84%
  Atherogenic index Median CFB - 24 weeks results: -0.20 mmol/L
[3]
  Atherogenic index Mean CFB - 24 weeks results: -0.30 mmol/L
  Atherogenic index Mean percentage CFB - 24 weeks results: −6.94%
  Atherogenic index Median CFB - 24 weeks results: -0.30 mmol/L
[4]
  Atherogenic index Mean CFB - 24 weeks results: -0.18 mmol/L
  Atherogenic index Mean percentage CFB - 24 weeks results: −3.54%
  Atherogenic index Median CFB - 24 weeks results: -0.20 mmol/L
[5]
  Atherogenic index Mean CFB - 24 weeks results: -0.24 mmol/L
  Atherogenic index Mean percentage CFB - 24 weeks results: −4.76%
  Atherogenic index Median CFB - 24 weeks results: -0.20 mmol/L
[6]
  Atherogenic index Mean CFB - 24 weeks results: -0.25 mmol/L
  Atherogenic index Mean percentage CFB - 24 weeks results: −5.23%
  Atherogenic index Median CFB - 24 weeks results: -0.30 mmol/L
[7]
  Atherogenic index Mean CFB - 24 weeks results: -0.24 mmol/L
  Atherogenic index Mean percentage CFB - 24 weeks results: −5.40%
  Atherogenic index Median CFB - 24 weeks results: -0.20 mmol/L
[8]
  Atherogenic index Mean CFB - 24 weeks results: -0.18 mmol/L
  Atherogenic index Mean percentage CFB - 24 weeks results: −3.70%
  Atherogenic index Median CFB - 24 weeks results: -0.20 mmol/L
[9]
  Atherogenic index Mean CFB - 24 weeks results: -0.06 mmol/L
  Atherogenic index Mean percentage CFB - 24 weeks results: −0.13%
  Atherogenic index Median CFB - 24 weeks results: -0.10 mmol/L
[10]
  Atherogenic index Mean CFB - 24 weeks results: -0.17 mmol/L
  Atherogenic index Mean percentage CFB - 24 weeks results: −2.80%
  Atherogenic index Median CFB - 24 weeks results: -0.10 mmol/L
[11]
  Atherogenic index Mean CFB - 24 weeks results: -0.11 mmol/L
  Atherogenic index Median CFB - 24 weeks results: -0.10 mmol/L
[12]
  Atherogenic index Mean CFB - 24 weeks results: -0.11 mmol/L
  Atherogenic index Mean percentage CFB - 24 weeks results: −1.34%
  Atherogenic index Median CFB - 24 weeks results: -0.10 mmol/L
[13]
  Atherogenic index Mean CFB - 24 weeks results: -0.06 mmol/L
  Atherogenic index Mean percentage CFB - 24 weeks results: −0.45%
  Atherogenic index Median CFB - 24 weeks results: -0.10 mmol/L
[14]
  Atherogenic index Mean CFB - 24 weeks results: -0.18 mmol/L
  Atherogenic index Mean percentage CFB - 24 weeks results: −3.49%
  Atherogenic index Median CFB - 24 weeks results: -0.20 mmol/L
[15]
  Atherogenic index Mean CFB - 24 weeks results: -0.27 mmol/L
  Atherogenic index Mean percentage CFB - 24 weeks results: −5.64%
  Atherogenic index Median CFB - 24 weeks results: -0.35 mmol/L
[16]
  Atherogenic index Mean CFB - 24 weeks results: -0.17 mmol/L
  Atherogenic index Mean percentage CFB - 24 weeks results: −3.81%
  Atherogenic index Median CFB - 24 weeks results: -0.30 mmol/L
100 mg q.d., week 1
  Atherogenic index Mean CFB: -0.06 mmol/L
  Atherogenic index Mean percentage CFB - 12 weeks results: 0%
  Atherogenic index Median CFB - 12 weeks results: -0.10 mmol/L
100 mg q.d., week 2
  Atherogenic index Mean CFB: -0.17 mmol/L
  Atherogenic index Mean percentage CFB - 12 weeks results: −3%
  Atherogenic index Median CFB - 12 weeks results: -0.10 mmol/L
100 mg q.d., week 4
  Atherogenic index Mean CFB: -0.11 mmol/L
  Atherogenic index Mean percentage CFB - 12 weeks results: −2%
  Atherogenic index Median CFB - 12 weeks results: -0.10 mmol/L
100 mg q.d., week 8
  Atherogenic index Mean CFB: -0.11 mmol/L
  Atherogenic index Mean percentage CFB - 12 weeks results: −1%
  Atherogenic index Median CFB - 12 weeks results: -0.10 mmol/L
100 mg q.d., week 12
  Atherogenic index Mean CFB: -0.06 mmol/L
  Atherogenic index Mean percentage CFB - 12 weeks results: 0%
